Test results from patent publication US5384260A, “Detection of onset of antiestrogen resistance in breast cancer” (Board of Regents, The University of Texas System, priority 1993, dated 1995).
Several values for one entry are separate records, joined by “and”; a condition that tells them apart may be missing. Equal entries are not always repeated. Entries after “also recorded” stand apart in the source; their conditions may differ.

Assays:
human tumor specimens = experiment: HPLC of tamoxifen and 4-OH-TAM isomers in tumors of tamoxifen-treated patients (Example 2); format: in vivo; details: for cis versus trans 4-OH-TAM in tumor nuclear pellets: patients with clinically-evident tumor resistance, FIG. 8
Description: (§1) Quantification of tamoxifen and its metabolites in tumor specimens was performed using photactivation and high performance liquid chromatography (HPLC) analysis. To summarize: Each tumor sample was weighed, spiked with an internal standard, and homogenized. Tissue samples were then extracted with 2% n-butanol in hexane and irradiated with high intensity ultraviolet light (254 nm). Samples were analyzed by HPLC using a C-18 reverse phase column and eluted isocratically with a mobile phase of water (7%) and triethylamine (0.25%) in methanol. All solvents were of HPLC grade. Fluorescence of all compounds was measured at a wavelength of 266 nm. […] In some samples, the tumor was first homogenized and then the nuclear pellet obtained by centrifugation. HPLC tamoxifen measurements were made on extracts of the entire tumor specimen or on subcellular fractions including the cytosol or-the total nuclear pellet. In some cases, the nuclear pellet was further extracted in 0.4M KCl to extract primary metabolites bound to estrogen receptor.
1) identification and measurement of tamoxifen and its metabolites in tumors isolated from tamoxifen-treated patients who are known treatment failures;
There are two tamoxifen-sensitive tumors (L281 and G375) for comparison because patients responding to treatment are not usually biopsied during the responsive phase of their disease.

MCF-7 tumors [1] = experiment: HPLC quantification of tamoxifen and cis/trans-4-hydroxytamoxifen ratio in MCF-7 tumors from tamoxifen-treated mice (total tumor, nuclear pellet, KCl nuclear extract); format: in vivo; details: for Mean 4-OH-TAM cis/trans ratio: p < 0.0005
Description: In order to examine the relationship between tamoxifen metabolites and tamoxifen resistance, athymic Balb/c nude mice were implanted with human breast cancer tumor cells (MCF-7). Mice were treated daily for 4-6 months with subcutaneous tamoxifen. After tamoxifen resistance developed and tumor progression was observed, mice were sacrificed, and tumors were collected. In addition, tamoxifen-sensitive tumors were collected from mice still responding to tamoxifen therapy.
as §1, with “Samples were analyzed by HPLC using a C-18 reverse phase column and eluted isocratically with a mobile phase of water (7%) and triethylamine (0.25%) in methanol.” left out
The material extracted with KCl includes that bound to estrogen receptor.

[2] = in vivo; cited from earlier work
[3] = HPLC of tamoxifen and metabolites in MCF-7 mouse tumors (Example 3); details: mouse, mcf-7 tumor, 500 ug/day
Description: (§2) Human breast tumors from various patients who failed tamoxifen therapy (20 mgs/day>one year) were obtained from the Breast Cancer Tumor Bank. A portion of the tumor was extracted, irradiated and analyzed by Mass Spectrometry (procedure described below). Tumor tissue was also obtained from an in vivo nude mouse model of acquired tamoxifen resistance. MCF-7 human breast tumors were harvested from nude mice after the development of tamoxifen resistance (4-6 months of tamoxifen administration, 500 ug/day). These tissues were frozen at -20° C. until analysis. Frozen tissue samples were weighed, homogenized, and extracted. Briefly, all samples were extracted with 6.0 ml of 2% butanol in hexane, vortexed for 1.0 min, and then centrifuged for 10 min at 1000×g. The organic phase was dried under N2 gas at 37° C. and reconstituted in 200 μl methanol prior to injection. The reconstituted samples were transferred to a Infrasil quartz cuvette (Fisher Scientific), irradiated for one minute with a 15 W Hg vapor lamp and injected onto a HPLC column.
(§3) The HPLC system consisted of a Beckman model 320 gradient liquid chromatograph, two model 110A pumps, and a model 420 controller. The HPLC was equipped with a reverse phase Altex C18 ultrasphere ODS column and a 100 μl injection loop. […] The flow rate of the mobil phase was set at 0.5 ml/min. The fluorescence of photochemically activated compounds was detected with an Applied Biosystems 980 fluorometer with excitation wavelength set at 266 nm. Retention times and peak heights were recorded with a Spectraphysics 4100 integrator.

MCF-7 tumors [4] = experiment: as above; details: for Presence in MCF-7 tamoxifen resistant mouse tumor: HPLC, FIG. 13
Description: as §2, §3

[5] = in vitro; cited from earlier work
T47D human breast cell = details: cited from earlier work
human breast tumors = experiment: HPLC and mass spectrometry of tamoxifen metabolites in human breast tumors failing tamoxifen (Example 3); format: in vivo; details: HPLC / EI-MS
Description: as §2
The HPLC system consisted of a Beckman model 320 gradient liquid chromatograph, two model 110A pumps, and a model 420 controller. The HPLC was equipped with a reverse phase Altex C18 ultrasphere ODS column and a 100 μl injection loop. The mobil phase consisted of 7% H2 O and […] triethylamine in methanol. The flow rate of the mobil phase was set at 0.5 ml/min. The fluorescence of photochemically activated compounds was detected with an Applied Biosystems 980 fluorometer with excitation wavelength set at 266 nm. Retention times and peak heights were recorded with a Spectraphysics 4100 integrator.
Non-irradiated samples were also injected onto the HPLC column and fractions were collected every minute. Fractionations corresponding to the retention times noted for the bisphenol and monophenol tamoxifen were further evaluated using mass-Spectrometry. The mass spectrometric behavior of the mono and bis phenols under electron impact ionization mass-spectrometry (EI-MS) was utilized. HPLC separated samples, in glass vials, were extracted with methanol, injected into glass capillaries and dried. Samples were introduced via a direct insertion probe. Spectra were recorded at 70 eV over the mass range of 70-500 at 10 seconds per decade with a resolution of 1000. The probe was heated in stages to 200° C.

[6] = cited from earlier work
[7] = resistant MCF-7 mouse tumors, N = 10 (N-DES 9, monophenol 8)
[8] = sensitive MCF-7 mouse tumors, N = 6 (bisphenol 5)

SMILES: CCC(=C(c1ccc(O)cc1)c1ccc(OCCN(C)C)cc1)c1ccccc1 [4-OH-TAM, 4-hydroxytamoxifen]
- cis versus trans 4-OH-TAM in tumor nuclear pellets (human tumor specimens): greater cis than trans levels
- cis/trans ratios in total tumor extract (human tumor specimens; tamoxifen-resistant patients' tumors, majority): relatively high cis/trans ratios in the total tumor extract
- cis/trans ratios (human tumor specimens; two tumors from tamoxifen-sensitive patients): low cis/trans ratios
- Cis/trans 4-OH-TAM ratio, individual tumor (MCF-7 tumors [1]; resistant MCF-7 tumors (N = 16)): 0.86 and 0.812 and 0.442 and 0.929 and 1.019 and 0.777 and 1.073 and 0.49 and 0.724 and 0.868 and 0.59 and 0.73 and 1.16 and 0.76 and 0.932
- cis 4-OH-TAM/trans-4-OH-TAM ratio in KCl-extracted nuclear pellets compared with other fractions (MCF-7 tumors [1]; resistant tumor, FIG. 7): larger in the nuclear pellets extracted with KCl
- C/T-OH-TAM ratio (summary) (MCF-7 tumors [1]; resistant tumors): 0.8-0.9
- Median cis/trans 4-OH-TAM ratio (MCF-7 tumors [1]; resistant tumors): 0.84
- Number of tumors with cis/trans ratio > 0.60 (MCF-7 tumors [1]; resistant tumors): 13/16
- Number of tumors with cis/trans ratio ≤ 0.60 (MCF-7 tumors [1]; resistant tumors): 3/16
- Range of cis/trans 4-OH-TAM ratio (MCF-7 tumors [1]; resistant tumors): 0.442-1.16
- Mean 4-OH-TAM cis/trans ratio (MCF-7 tumors [1]; resistant tumors, SD = 0.196): 0.8141
- cis/trans 4-OH-TAM ratio, resistant compared with sensitive tumors (MCF-7 tumors [1]; resistant vs sensitive): higher cis/trans ratios; also recorded: increase; also recorded: lower in sensitive than in resistant tumors; also recorded: the cis/trans ratio is higher in the resistant tumor
- Cis/trans 4-OH-TAM ratio, individual tumor (MCF-7 tumors [1]; sensitive MCF-7 tumors (N = 16)): 0.575 and 0.588 and 0.472 and 0.56 and 0.645 and 0.428 and 0.446 and 0.4632 and 0.476 and 0.506 and 0.34 and 0.486 and 0.38 and 1.0 and 0.77
- C/T-OH-TAM ratio (summary) (MCF-7 tumors [1]; sensitive tumors): 0.4-0.5
- Median cis/trans 4-OH-TAM ratio (MCF-7 tumors [1]; sensitive tumors): 0.48
- Number of tumors with cis/trans ratio > 0.60 (MCF-7 tumors [1]; sensitive tumors): 3/16
- Number of tumors with cis/trans ratio ≤ 0.60 (MCF-7 tumors [1]; sensitive tumors): 13/16
- Range of cis/trans 4-OH-TAM ratio (MCF-7 tumors [1]; sensitive tumors): 0.34-1.0
- Mean 4-OH-TAM cis/trans ratio (MCF-7 tumors [1]; sensitive tumors, SD = 0.168): 0.5297

SMILES: CCC(=C(c1ccccc1)c1ccc(OCCNC)cc1)c1ccccc1 [N-desmethyltamoxifen]
- Occurrence in human serum [2]: major metabolite found in human serum
- concentration at 4380 h [3]: 135 ng/g
- Tamoxifen and metabolite concentrations, individual animal (MCF-7 tumors [4]; resistant MCF-7 mouse tumors): 19.65 .eta.g/g tissue and 68.12 .eta.g/g tissue and 38.44 .eta.g/g tissue and 135.44 .eta.g/g tissue and 50.27 .eta.g/g tissue and 65.70 .eta.g/g tissue and 127.29 .eta.g/g tissue and 100.43 .eta.g/g tissue
- Tamoxifen and metabolite concentrations, mean (X) (MCF-7 tumors [4]; [7]): 71.28 .eta.g/g tissue
- Tamoxifen and metabolite concentrations, individual animal (MCF-7 tumors [4]; sensitive MCF-7 mouse tumors): 124.70 .eta.g/g tissue and 331.82 .eta.g/g tissue and 534.62 .eta.g/g tissue and 5.95 .eta.g/g tissue and 322.99 .eta.g/g tissue and 359.67 .eta.g/g tissue
- Tamoxifen and metabolite concentrations, mean (X) (MCF-7 tumors [4]; [8]): 279.95 .eta.g/g tissue

SMILES: CC/C(=C(\c1ccccc1)c1ccc(O)cc1)c1ccccc1 [Trans-metabolite E]
- Isomerization to cis metabolite E [5]: demonstrated in vitro
- Estrogen agonist activity of metabolite E isomers (T47D human breast cell): weak partial agonist

SMILES: CCC(=C(c1ccc(O)cc1)c1ccc(O)cc1)c1ccccc1 [bisphenol]
- Presence in human breast cancer tissue (human breast tumors): the presence of bisphenol could not be confirmed
- Presence in human breast cancer tissue (human breast tumors; listed as bisphenoltamoxifen): also present in these patients
- Presence in MCF-7 tamoxifen resistant mouse tumor (MCF-7 tumors [4]): A very small peak was evident at a retention time similar to bisphenol
- Tamoxifen and metabolite concentrations, individual animal (MCF-7 tumors [4]; resistant MCF-7 mouse tumors): 15.12 .eta.g/g tissue and 18.34 .eta.g/g tissue and 4.26 .eta.g/g tissue and 3.93 .eta.g/g tissue and 32.75 .eta.g/g tissue and 9.77 .eta.g/g tissue and 43.87 .eta.g/g tissue and 52.72 .eta.g/g tissue and 23.38 .eta.g/g tissue
- Tamoxifen and metabolite concentrations, mean (X) (MCF-7 tumors [4]; [7]): 21.33 .eta.g/g tissue
- Tamoxifen and metabolite concentrations, individual animal (MCF-7 tumors [4]; sensitive MCF-7 mouse tumors): 44.27 .eta.g/g tissue and 33.90 .eta.g/g tissue and 39.80 .eta.g/g tissue and 1491.44 .eta.g/g tissue and 352.76 .eta.g/g tissue
- Tamoxifen and metabolite concentrations, mean (X) (MCF-7 tumors [4]; [8]): 392.43 .eta.g/g tissue

SMILES: CC/C(=C(/c1ccc(O)cc1)c1ccc(OCCN(C)C)cc1)c1ccccc1 [cis 4-hydroxytamoxifen]
- cis versus trans 4-OH-TAM in tumor nuclear pellets (human tumor specimens): higher cis 4-OH-TAM in the nuclear pellets

SMILES: CC/C(=C(/c1ccccc1)c1ccc(O)cc1)c1ccccc1 [cis-metabolite E]
- Estrogen agonist activity of metabolite E isomers (T47D human breast cell): potent estrogen agonist
- Stimulation of T47D human breast cell growth (T47D human breast cell): more potent than bisphenol

SMILES: CCC(=C(c1ccc(O)cc1)c1ccc(OCCNC)cc1)c1ccccc1 [metabolite Bx]
- Presence in human breast cancer tissue (human breast tumors): Peaks were also noted
- Presence in MCF-7 tamoxifen resistant mouse tumor (MCF-7 tumors [4]): noted on the chromatogram

SMILES: CCC(=C(c1ccccc1)c1ccc(OCCN)cc1)c1ccccc1 [metabolite Z, didesmethyltamoxifen]
- Presence in human breast cancer tissue (human breast tumors): Peaks were also noted

SMILES: CCC(=C(c1ccccc1)c1ccc(O)cc1)c1ccccc1 [monophenol]
- Presence in human breast cancer tissue (human breast tumors): confirmed the presence of monophenol
- Presence in human breast cancer tissue (human breast tumors; listed as monophenoltamoxifen): present in tumors isolated from patients who failed tamoxifen therapy
- Presence in dog bile ([6]; dog, in vivo): isolated from the bile of dogs
- Share of radiolabeled compounds present in bile ([6]; dogs): approximately 6%
- concentration at 4380 h [3]: 22 ng/g
- Tamoxifen and metabolite concentrations, individual animal (MCF-7 tumors [4]; resistant MCF-7 mouse tumors): 24.30 .eta.g/g tissue and 9.63 .eta.g/g tissue and 21.99 .eta.g/g tissue and 20.66 .eta.g/g tissue and 232.66 .eta.g/g tissue and 47.82 .eta.g/g tissue and 27.13 .eta.g/g tissue
- Tamoxifen and metabolite concentrations, mean (X) (MCF-7 tumors [4]; [7]): 49.35 .eta.g/g tissue
- Tamoxifen and metabolite concentrations, individual animal (MCF-7 tumors [4]; sensitive MCF-7 mouse tumors): 7.69 .eta.g/g tissue and 109.07 .eta.g/g tissue and 160.99 .eta.g/g tissue and 37.72 .eta.g/g tissue and 265.25 .eta.g/g tissue and 137.93 .eta.g/g tissue
- Tamoxifen and metabolite concentrations, mean (X) (MCF-7 tumors [4]; [8]): 119.78 .eta.g/g tissue

SMILES: CC/C(=C(\c1ccc(O)cc1)c1ccc(OCCN(C)C)cc1)c1ccccc1 [trans 4-hydroxytamoxifen]
- 40H trans peak height (human tumor specimens; pellet (KCl nuclear extract), nd = not detectable, listed as 40H trans): 1024 and 1194
